The nature of assay [1]: Inhibition of SARS-CoV-2 MPro S144A mutant. The arrangement: species or system Severe acute respiratory syndrome coronavirus 2.
A short description of assay [2]: Inhibition of SARS-CoV-2 MPro S144F mutant. Also noted: species or system Severe acute respiratory syndrome coronavirus 2.
Assay [3] in a line: Inhibition of SARS-CoV-2 MPro S144M mutant. Also noted: species or system Severe acute respiratory syndrome coronavirus 2.
Assay [4] in a line: Inhibition of SARS-CoV-2 MPro S144Y mutant. The arrangement: species or system Severe acute respiratory syndrome coronavirus 2.
A short description of assay [5]: Inhibition of SARS-CoV-2 MPro M165T mutant. Also noted: species or system Severe acute respiratory syndrome coronavirus 2.
The nature of assay [6]: Inhibition of SARS-CoV-2 MPro H172F mutant. Also noted: species or system Severe acute respiratory syndrome coronavirus 2.
Assay [7] is described as follows: Inhibition of SARS-CoV-2 MPro L50F/E166A/L167F mutant. Also noted: species or system Severe acute respiratory syndrome coronavirus 2.
Assay [8] in a line: Inhibition of SARS-CoV-2 MPro E166 V mutant. Also noted: species or system Severe acute respiratory syndrome coronavirus 2.
Assay [9] can be described thus: Inhibition of SARS-CoV-2 MPro Q189E mutant. Also noted: species or system Severe acute respiratory syndrome coronavirus 2.
Assay [10] in a line: Inhibition of SARS-CoV-2 MPro deltaP168 mutant. Also noted: species or system Severe acute respiratory syndrome coronavirus 2.
Assay [11] can be described thus: Inhibition of SARS-CoV-2 MPro A173 V mutant. The arrangement: species or system Severe acute respiratory syndrome coronavirus 2.
The nature of assay [12]: Inhibition of SARS-CoV-2 MPro S144G mutant. The arrangement: species or system Severe acute respiratory syndrome coronavirus 2.
Assay [13] is described as follows: Inhibition of SARS-CoV-2 MPro H172Q mutant. Also noted: species or system Severe acute respiratory syndrome coronavirus 2.
The nature of assay [14]: Inhibition of SARS-CoV-2 MPro Q192S mutant. The arrangement: species or system Severe acute respiratory syndrome coronavirus 2.
Assay [15] is described as follows: Inhibition of SARS-CoV-2 MPro G143S mutant. Also noted: species or system Severe acute respiratory syndrome coronavirus 2.
The nature of assay [16]: Inhibition of SARS-CoV-2 MPro H172Y mutant. The arrangement: species or system Severe acute respiratory syndrome coronavirus 2.
The subject of assay [17] is Severe acute respiratory syndrome coronavirus 2. Nature of the assay: Selectivity index, ratio of IC50 for inhibition of SARS-CoV-2 MPro S144A mutant to IC50 for inhibition of wild type SARS-CoV-2 MPro.
The test system is the same in assay [18]. In words: Selectivity index, ratio of IC50 for inhibition of SARS-CoV-2 MPro S144F mutant to IC50 for inhibition of wild type SARS-CoV-2 MPro.
For assay [19] the test system is unchanged. Nature of the assay: Selectivity index, ratio of IC50 for inhibition of SARS-CoV-2 MPro S144G mutant to IC50 for inhibition of wild type SARS-CoV-2 MPro.
Assay [20] has the same test system. Nature of the assay: Selectivity index, ratio of IC50 for inhibition of SARS-CoV-2 MPro S144M mutant to IC50 for inhibition of wild type SARS-CoV-2 MPro.
Assay [21] shares this test system. In words: Selectivity index, ratio of IC50 for inhibition of SARS-CoV-2 MPro S144Y mutant to IC50 for inhibition of wild type SARS-CoV-2 MPro.
The test system is the same in assay [22]. In words: Selectivity index, ratio of IC50 for inhibition of SARS-CoV-2 MPro M165T mutant to IC50 for inhibition of wild type SARS-CoV-2 MPro.
Assay [23] shares this test system. Nature of the assay: Selectivity index, ratio of IC50 for inhibition of SARS-CoV-2 MPro H172F mutant to IC50 for inhibition of wild type SARS-CoV-2 MPro.
The test system is the same in assay [24]. Nature of the assay: Selectivity index, ratio of IC50 for inhibition of SARS-CoV-2 MPro H172Q mutant to IC50 for inhibition of wild type SARS-CoV-2 MPro.
For assay [25] the test system is unchanged. Nature of the assay: Selectivity index, ratio of IC50 for inhibition of SARS-CoV-2 MPro Q192S mutant to IC50 for inhibition of wild type SARS-CoV-2 MPro.
For assay [26] the test system is unchanged. Nature of the assay: Selectivity index, ratio of IC50 for inhibition of SARS-CoV-2 MPro L50F/E166A/L167F mutant to IC50 for inhibition of wild type SARS-CoV-2 MPro.
Assay [27] shares this test system. Nature of the assay: Selectivity index, ratio of IC50 for inhibition of SARS-CoV-2 MPro G143S mutant to IC50 for inhibition of wild type SARS-CoV-2 MPro.
Assay [28] has the same test system. Nature of the assay: Selectivity index, ratio of IC50 for inhibition of SARS-CoV-2 MPro E166 V mutant to IC50 for inhibition of wild type SARS-CoV-2 MPro.
The test system is the same in assay [29]. In words: Selectivity index, ratio of IC50 for inhibition of SARS-CoV-2 MPro H172Y mutant to IC50 for inhibition of wild type SARS-CoV-2 MPro.
Assay [30] has the same test system. In words: Selectivity index, ratio of IC50 for inhibition of SARS-CoV-2 MPro Q189E mutant to IC50 for inhibition of wild type SARS-CoV-2 MPro.
Assay [31] shares this test system. In words: Selectivity index, ratio of IC50 for inhibition of SARS-CoV-2 MPro deltaP168 mutant to IC50 for inhibition of wild type SARS-CoV-2 MPro.
The test system is the same in assay [32]. Nature of the assay: Selectivity index, ratio of IC50 for inhibition of SARS-CoV-2 MPro A173 V mutant to IC50 for inhibition of wild type SARS-CoV-2 MPro.

One may read the IC50 as the point on the concentration scale where inhibition reaches its midpoint.

For `CC(C)(C)[C@H](NC(=O)C(F)(F)F)C(=O)N1C[C@H]2[C@@H]([C@H]1C(=O)N[C@H](C#N)C[C@@H]1CCNC1=O)C2(C)C`, the IC50 in [1] was found to be 41.7 nM; in [2] it was 176 nM; in assay [3], 426 nM; in [4], 203 nM; in assay [5] it was 181 nM; in assay [6], 1700 nM. Moreover, the IC50 was 512 nM in [7]; 2620 nM in [8]; 199 nM in assay [9]; 47 nM in assay [10]; 85.5 nM in assay [11].

On to `C=CC(=O)[C@H](Cc1cccc(Cl)c1)NC(=O)[C@H](CC(C)C)NC(=O)CSc1ccccc1`, for which the IC50 in assay [1] turned out to be 42.5 nM; in [2], 219 nM; in assay [12] it was 254 nM; in [3], 414 nM; in assay [4], 244 nM; in [5], 260 nM. For the same compound, the IC50 in [6] amounted to 146 nM; in assay [13], 159 nM; in assay [14], 261 nM; in [7], 239 nM; in assay [15] it was 155 nM; in assay [8], 236 nM. Besides, the IC50 in assay [16] amounted to 297 nM; in [9] it was 211 nM; in [10] it was 65.4 nM; in [11], 82.4 nM. Also, the Ratio IC50 in assay [17] was found to be 3.6; in assay [18], 18.7; in assay [19], 21.7; in [20], 35.4; in [21] it was 20.9; in [22] it was 22.2. Also, the Ratio IC50 in assay [23] worked out at 12.5; in [24] it was 13.6; in [25], 22.3; in [26], 20.4; in assay [27] it was 13.2; in assay [28], 20.2. Besides, the Ratio IC50 in [29] was 25.4; in assay [30], 18; in assay [31], 5.6; in [32], 7.

For the compound `C=CC(=O)[C@H](Cc1ccccc1)NC(=O)[C@H](CC(C)C)NC(=O)COc1ccc(Cl)cc1Cl`, the IC50 came out at 328 nM in [1]; 636 nM in assay [2]; 472 nM in assay [12]; 745 nM in assay [3]; 497 nM in assay [4]; 1390 nM in assay [5]. The IC50 in assay [6] came to 313 nM; in [13], 390 nM; in [14], 488 nM; in assay [7] it was 392 nM; in assay [15] it was 230 nM; in assay [8] it was 409 nM. For the same compound, the IC50 in [16] is 1280 nM; in assay [9], 714 nM; in assay [10], 368 nM; in assay [11] it was 140 nM.

Source of the values: ChEMBL document CHEMBL6153062, “Design, Synthesis, and Unprecedented Interactions of Covalent Dipeptide-Based Inhibitors of SARS-CoV-2 Main Protease and Its Variants Displaying Potent Antiviral Activity” (J Med Chem, 2025).
